{
  "source": "patent US20220023269A1",
  "about": "“Methods Of Treating Diabetes In Severe Insulin-Resistant Diabetic Subjects” (Balticgruppen Bio AB, priority 2018, published 2022)",
  "key": {"[1]": {"system": "muscle", "conditions": "in vivo; cited from earlier work"}, "[2]": {"system": "hypertensive rats", "conditions": "acute; cited from earlier work"}, "[3]": {"system": "DIO mice", "assay": "Prevention of dysglycemia and insulin resistance in DIO B6 mice (oral gavage, 8 w)", "assay_type": "in vivo", "conditions": "100 mg/kg/day each, oral gavage", "procedure": "MATSUDA index was calculated via: […] […] All cell lines were lysed in 0.1 M Tris-HCl, pH 6.8, 2% SDS, 10 mM sodium fluoride (SIGMA #S7920), 10 mM β-glycerophosphate (SIGMA #G6376), and 1 mM sodium vanadate (SIGMA #72060) and supernatant collected after 1 minute at 14,000 rpm. Islets (human and mouse) were lysed in 0.1 M Tris-HCl, pH 6.8, 2% SDS, protease inhibitor (Roche #04 693 124 001) and phosphatase inhibitor (Roche #04 906 837 001). […] The supernatant was collected after 2 min at 14,000 rpm. This procedure was repeated until all fat was eliminated and the supernatant was clear, at 4° C. Samples were analysed on 4-15% polyacrylamide gels. Values were normalised toward AMPKα, β-Actin, GAPDH or the respective non-phosphorylated counterpart. For RNA purification calf muscle, iWAT, interscapular BAT, and left lateral liver lobe was crushed in a pestle using liquid nitrogen before turning to respective RNA kit. RNA from liver was prepared using Total RNA isolation Nucleospin II Kit (Macherey-Nagel #740955.50). RNA from adipose tissue was prepared using RNeasy Lipid Tissue Mini kit (Qiagen #74804). RNA from calf muscle tissue was prepared using RNeasy Fibrous Tissue Mini kit (Qiagen #74704). First strand cDNA synthesis was done using SuperScript III (First-Strand Synthesis SuperMix for qRT-PCR, Invitrogen #11752-250) according to the manufacturer's instructions. Total RNA was prepared from isolated islets using RNeasy Micro Kit (Qiagen #74004) and first strand cDNA synthesis was done using Superscript III (Invitrogen #18080-051) according to the manufacturer's instructions. Quantification of mRNA expression levels was performed essentially as previously described (Reference 3)."}, "[4]": {"system": "diet-induced obese C57BL/6J mice", "assay": "Combination therapy AMPK activator + SGLT2 inhibitor in DIO mice", "assay_type": "in vivo", "conditions": "2 weeks oral gavage, Compound 1 75 mg/kg, canagliflozin 10 mg/kg", "procedure": "Male C57BL/6J mice, 8 weeks of age were purchased from Jackson, Charles River Laboratories, Inc. (Germany). All animals were housed in the Umeå University animal facility (Umeå Centre for Comparative Biology; UCCB) with a 12:12 hour light-dark cycle (lights on at 6 a.m.) and a constant temperature of 21° C. The animals were ear marked with a unique identification number, and groups of 5 mice were housed in transparent polycarbonate cages that comply with the requirements of the Code of Practice for the housing and care of animals used in scientific procedures. Wood chips were used as bedding material and environmental enrichment was provided. Animals were allowed to acclimate for 15 weeks to their new environment before the onset of the study. The animals were allowed ad libitum access to tap water throughout the accommodation and study period. During the acclimation period, the animals were allowed a standard pelleted diet (CRM (E) Rodent, Special Diets Services, Scanbur BK, Sweden). At the start of the study, the standard diet was changed to a very high fat diet (vHFD; Cat. No. D12492, Research Diets, Inc.) and this diet was kept throughout the whole study period. All of the procedures were approved by the Local Ethics Review Committee on Animal Experiments, Umeå Region.\n23 Weeks old male C57BL/6J mice were fed HFD to promote diet-induced obesity (DIO) and administered once daily by oral gavage; vehicle (phosphate buffer pH 7.3, 2% w/v methyl cellulose; n=11), canagliflozin 10 mg/kg (n=14), Compound 1 at 75 mg/kg (n=14) and the combination of canagliflozin 10 mg/kg and Compound 1 at […] (n=15). After 2 weeks of treatment, fasted (6 hour) blood glucose and plasma insulin levels (determined in tail vein blood samples) were analysed. Food intake and weight were monitored throughout the study.\nBlood samples were collected from the tail vein in Potassium-EDTA vials and plasma was separated by centrifugation and stored at −20° C. until assayed. Plasma insulin was determined with mouse insulin ELISA (Ultra Sensitive Mouse insulin ELISA Kit). Glucose concentrations were analysed in tail vein blood using a OneTouch® Ultra®2 Blood Glucose Meter (LifeScan, Inc).\nResults shown in the figures are expressed as means±standard error of the mean (S.E.M.) for the number of animals per group. Statistical significance between the control group and the three treatment groups were analysed by Student's t-test, with P<0.05 considered statistically significant."}, "[5]": {"system": "AMPK in HeLa cells", "assay": "AMPK activation assay in HeLa cells (LKB1 null)", "assay_type": "cell-based, human", "conditions": "1 μM, last 20 minutes", "procedure": "All cell lines were lysed in 0.1 M Tris-HCl, pH 6.8, 2% SDS, 10 mM sodium fluoride (SIGMA #S7920), 10 mM β-glycerophosphate (SIGMA #G6376), and 1 mM sodium vanadate (SIGMA #72060) and supernatant collected after 1 minute at 14,000 rpm. Islets (human and mouse) were lysed in 0.1 M Tris-HCl, pH 6.8, 2% SDS, protease inhibitor (Roche #04 693 124 001) and phosphatase inhibitor (Roche #04 906 837 001). Right calf muscle, heart, iWAT, and interscapular BAT was crushed in a pestle using liquid nitrogen and homogenised in ice cold RIPA buffer (150 mM sodium chloride (SIGMA #S7653), 1.0% NP40 (USB), 0.5% sodium deoxycholate (SIGMA #D6750), 0.1% SDS, 50 mM Tris pH 8.0, 20 mM sodium pyrophosphate (SIGMA #71515), 10 mM sodium fluoride, 10 mM β-glycerolphosphate, 1 mM sodium vanadate and protease inhibitor cocktail (Roche #04693124001), 1 tablet/10 ml lysis buffer). The supernatant was collected after 2 min at 14,000 rpm. This procedure was repeated until all fat was eliminated and the supernatant was clear, at 4° C. Samples were analysed on 4-15% polyacrylamide gels. Values were normalised toward AMPKα, β-Actin, GAPDH or the respective non-phosphorylated counterpart.\nTable 3 contains origin of cell lines, growth conditions and settings for activation of AMPK via the test material. […]"}},
  "data": [
    {"smiles": "NC(=O)c1ncn([C@@H]2O[C@H](CO)[C@@H](O)[C@H]2O)c1N", "note": "[AICAR, 5-aminoimidazole-4-carboxyamide-1-β-D-ribofuranoside]", "values": [
      {"measurement": "microvascular perfusion in muscle", "setting": "[1]", "value": "increases microvascular perfusion in muscle"},
      {"measurement": "blood pressure", "setting": "[2]", "value": "acutely lower blood pressure"}
    ]},
    {"smiles": "CN(C)C(=N)N=C(N)N", "note": "[Metformin, reference compound]", "values": [
      {"measurement": "HFD-provoked increase in fasted glucose", "setting": "[3]; 6 w", "value": "no significant effect"},
      {"measurement": "HFD-provoked increase in fasted plasma insulin", "setting": "[3]; 6 w", "value": "no significant effect"},
      {"measurement": "insulin resistance (HOMA-IR)", "setting": "[3]; vs vehicle", "value": "no significant effect"}
    ]},
    {"smiles": "Cc1ccc([C@@H]2O[C@H](CO)[C@@H](O)[C@H](O)[C@H]2O)cc1Cc1ccc(-c2ccc(F)cc2)s1", "note": "[canagliflozin]", "values": [
      {"measurement": "HOMA-IR", "setting": "[4]", "value": "lesser reduction"},
      {"measurement": "fasted blood glucose", "setting": "[4]; 6 hour fast", "value": "lesser reduction"},
      {"measurement": "fasted plasma insulin", "setting": "[4]; 6 hour fast", "value": "lesser reduction"}
    ]},
    {"smiles": "C[C@H](CCC(=O)O)C[C@H](C)C[C@H](C)C(=O)/C=C(\\O)[C@H](C)C[C@H](C)C/C=C/[C@@H](C)[C@@H](O)[C@@H](C)[C@@H](O)C[C@@H]1CC[C@@](C)([C@H]2CC[C@@](C)([C@@H](C)O)O2)O1", "note": "[ionomycin, reference compound]", "values": [
      {"measurement": "AMPK activation (control)", "setting": "[5]", "value": "readily activated AMPK"}
    ]}
  ]
}
